Results taken from US20230339919A1, “BENZO OXYGEN-CONTAINING HETEROCYCLIC COMPOUNDS AND MEDICAL APPLICATION THEREOF” (AB PHARMA LTD., priority 2020, published 2023).
“Also recorded” adds a separate entry of the source. Like-named read-outs stand apart in the source and are kept apart here.

Assays:
GPR40 = target: T1, GPR40 (Homo sapiens, UniProt O14842); assay: GPR40 agonist activity, FLIPR calcium assay in CHO-K1/GPR40 cells; type: cell-based
T1 construct: expressed in transfected cells; host or cells: CHO-K1
T1 sequence (O14842 whole entry): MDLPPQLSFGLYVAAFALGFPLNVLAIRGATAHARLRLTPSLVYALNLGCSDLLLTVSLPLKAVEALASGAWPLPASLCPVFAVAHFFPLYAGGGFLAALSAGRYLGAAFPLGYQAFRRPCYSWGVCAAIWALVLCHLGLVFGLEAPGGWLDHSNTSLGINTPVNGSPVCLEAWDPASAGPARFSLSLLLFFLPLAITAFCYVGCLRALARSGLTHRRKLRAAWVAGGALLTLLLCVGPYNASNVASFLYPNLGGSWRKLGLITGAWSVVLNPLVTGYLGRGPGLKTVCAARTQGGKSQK
Experimental: Inoculate CHO-K1/GPR40 cells in 384-well plates at a density of 10,000 cells/well. Cells were incubated at 37° C. for 24 hours in a 5% CO2 incubator. After the experiment, discard the cell culture medium, quickly add […] of 1× FLIPR® Calcium 6 dye containing 2.5 mM/Probenecid to each well and incubate at 37° C. for 2 hours protected from light. For the determination, different concentrations of drug ([…]) were added to the wells and the fluorescence values were read. The fluorescence excitation wavelength was 494 nm and emission wavelength was 516 nm. FLIPR instrument data, EC50 was derived from the formula Y=Bottom+(Top−Bottom)/(1+(EC50/X)^HillSlope).

[1] = Acute Toxicity Study (MTD) by gavage in healthy mice; type: in vivo; conditions: mouse, in vivo, po; mice, 600 mg/kg by gavage, 5 consecutive days; read-out: LD50
healthy mice = assay: as above; type: in vivo
[2] = target: BSEP bile salt transporter (Homo sapiens, UniProt O95342); assay: BSEP (Bile Salt Export Pump) assay, taurocholic acid uptake by BSEP vesicles, LC/MS/MS; type: in vitro ADME
Chain of BSEP bile salt transporter (O95342 whole entry): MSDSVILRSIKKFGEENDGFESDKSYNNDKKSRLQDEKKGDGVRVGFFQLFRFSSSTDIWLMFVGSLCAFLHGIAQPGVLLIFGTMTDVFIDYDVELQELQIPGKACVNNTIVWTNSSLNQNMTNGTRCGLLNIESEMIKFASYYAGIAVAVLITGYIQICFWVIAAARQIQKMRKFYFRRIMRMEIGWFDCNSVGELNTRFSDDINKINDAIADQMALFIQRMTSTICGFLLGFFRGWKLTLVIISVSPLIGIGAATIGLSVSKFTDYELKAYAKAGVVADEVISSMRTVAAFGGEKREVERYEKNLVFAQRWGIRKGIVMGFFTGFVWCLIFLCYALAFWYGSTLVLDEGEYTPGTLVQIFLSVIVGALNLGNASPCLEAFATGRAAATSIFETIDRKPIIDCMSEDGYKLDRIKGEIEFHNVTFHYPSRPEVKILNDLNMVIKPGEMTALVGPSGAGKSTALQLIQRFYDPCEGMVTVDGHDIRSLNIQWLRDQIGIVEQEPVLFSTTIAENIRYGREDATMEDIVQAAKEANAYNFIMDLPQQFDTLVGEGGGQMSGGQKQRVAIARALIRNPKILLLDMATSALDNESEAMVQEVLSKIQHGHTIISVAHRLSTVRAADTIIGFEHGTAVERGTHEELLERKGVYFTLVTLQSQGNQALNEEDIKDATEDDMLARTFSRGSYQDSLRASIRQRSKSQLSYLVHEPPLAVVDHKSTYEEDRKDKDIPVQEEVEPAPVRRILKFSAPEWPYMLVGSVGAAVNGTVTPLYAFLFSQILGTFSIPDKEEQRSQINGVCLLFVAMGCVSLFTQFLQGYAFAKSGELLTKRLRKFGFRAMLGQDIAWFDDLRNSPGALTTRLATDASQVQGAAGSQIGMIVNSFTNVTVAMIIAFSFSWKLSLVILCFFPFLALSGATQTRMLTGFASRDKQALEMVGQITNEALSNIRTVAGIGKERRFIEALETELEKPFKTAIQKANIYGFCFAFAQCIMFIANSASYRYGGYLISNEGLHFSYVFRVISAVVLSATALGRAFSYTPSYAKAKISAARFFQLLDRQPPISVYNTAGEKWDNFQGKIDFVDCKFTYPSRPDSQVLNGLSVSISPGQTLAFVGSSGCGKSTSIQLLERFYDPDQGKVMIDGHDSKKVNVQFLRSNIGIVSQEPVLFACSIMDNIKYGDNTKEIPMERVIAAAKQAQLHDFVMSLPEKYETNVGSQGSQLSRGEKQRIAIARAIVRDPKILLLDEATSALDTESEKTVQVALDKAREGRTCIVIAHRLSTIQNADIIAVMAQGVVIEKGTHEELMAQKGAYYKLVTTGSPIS
Description: In this experiment, we performed a preliminary study on the inhibition of the uptake of the substrate taurocholic acid (TCA) by the BSEP bile salt transporter by LC/MS/MS. The BSEP protein microvesicles with reverse uptake ability were obtained by transfecting Hi5 cells with the BSEP gene, which is capable of TCA uptake and uptake of taurocholic acid. The principle of this experiment is to perform substrate uptake by BSEP protein microcapsules in the presence of energy ATP, the substrate TCA and the candidate compound to be tested, after a certain transit time, the energy, substrate and candidate compound were completely washed out of the microvesicle, and the absorbed substrate TCA was released by lysis of the microvesicle. […] The starting concentration of the sample was 100 mM, diluted in 2-fold gradient with Bravo apparatus, with 11 concentration gradients; the lowest point concentration was 97.65 μM. • 3. Control compound (Glyburide) starting at 20 mM, diluted in 2-fold gradient with Bravo instrument, with 11 concentration gradients; the lowest point concentration was 19.53 μM. • 4. 300 nl of compound was transferred to the middle plate using the ECHO autosampler. • 5. Positive control (HPE) wells and negative control (ZPE) wells were also transferred 300 nl DMSO each. […] Add 14.7 μl of ATP buffer to the corresponding wells of the compound and ZPE, respectively. • 2. Add 14.7 μl of AMP buffer to the corresponding wells of the HPE. • 3. Shake the plate at 25 degrees C. for 10 minutes. • 4. […] Immediately add 5 ul of 0.5M EDTA solution to all wells, and then add 65 μl of Buffer B. All reactions are completed. • 6. Transfer […] of liquid from the end of reaction compound plate to the filter plate using the spiking apparatus. • 7. After placing the liquid receiving plate under the filter plate, use a centrifuge to remove the liquid and discard the liquid received in the receiving plate. • 8. Add 90 μl of buffer B to the filter plate and repeat step 7. Repeat steps 7 and 8 to wash the filter plate a total of three times. • 9. Let the filter plate dry overnight. • 10. Add 81 μl of 80% methanol/water solution to the filter plate the next day. • 11. Apply membrane to the filter plate and vibrate the plate for 15 minutes. • 12. Place a new liquid receiver plate under the filter plate and centrifuge for 5 min to filter all the liquid from the filter plate into the receiver plate. • 13. Add 13.5 μl of internal standard solution to each well of the liquid receiver plate and seal the plate with a sealing film. • 14. Using LC/MS/MS, detect the content of taurocholic acid in the receiver plate.

hERG = hERG (Homo sapiens, UniProt Q12809); assay: hERG assay
Chain of hERG (Q12809 whole entry): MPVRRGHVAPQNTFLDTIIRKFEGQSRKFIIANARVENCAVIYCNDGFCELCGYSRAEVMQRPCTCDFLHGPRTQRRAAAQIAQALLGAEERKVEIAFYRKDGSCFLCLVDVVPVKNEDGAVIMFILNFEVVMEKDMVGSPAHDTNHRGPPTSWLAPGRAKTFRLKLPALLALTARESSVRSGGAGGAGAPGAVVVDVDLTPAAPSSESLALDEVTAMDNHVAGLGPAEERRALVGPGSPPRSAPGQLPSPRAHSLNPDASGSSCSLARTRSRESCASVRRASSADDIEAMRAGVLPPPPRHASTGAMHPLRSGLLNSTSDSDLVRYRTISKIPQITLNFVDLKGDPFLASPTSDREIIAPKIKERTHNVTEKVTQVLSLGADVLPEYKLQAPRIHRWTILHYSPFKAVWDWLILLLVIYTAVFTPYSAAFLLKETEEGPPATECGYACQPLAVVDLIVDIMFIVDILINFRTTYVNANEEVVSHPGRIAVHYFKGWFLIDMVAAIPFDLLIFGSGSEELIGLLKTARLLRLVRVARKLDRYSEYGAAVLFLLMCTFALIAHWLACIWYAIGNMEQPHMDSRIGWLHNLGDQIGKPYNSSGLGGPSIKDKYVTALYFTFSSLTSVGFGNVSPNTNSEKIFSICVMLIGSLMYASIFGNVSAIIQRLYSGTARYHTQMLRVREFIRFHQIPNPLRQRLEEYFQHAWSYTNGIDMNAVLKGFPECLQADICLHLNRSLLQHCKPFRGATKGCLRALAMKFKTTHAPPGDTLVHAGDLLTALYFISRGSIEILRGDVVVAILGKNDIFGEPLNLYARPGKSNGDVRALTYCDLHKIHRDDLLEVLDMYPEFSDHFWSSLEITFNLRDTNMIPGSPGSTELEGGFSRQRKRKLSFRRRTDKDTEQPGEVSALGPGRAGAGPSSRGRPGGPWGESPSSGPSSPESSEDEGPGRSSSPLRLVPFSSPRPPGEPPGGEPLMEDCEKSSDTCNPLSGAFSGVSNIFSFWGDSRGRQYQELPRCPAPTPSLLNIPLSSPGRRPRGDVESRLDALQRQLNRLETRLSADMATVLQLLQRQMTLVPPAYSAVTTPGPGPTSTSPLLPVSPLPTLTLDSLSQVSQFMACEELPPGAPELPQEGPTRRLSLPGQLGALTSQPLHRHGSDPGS

[3] = cited from earlier work
[4] = inhibition of TCA uptake by BSEP vesicles, read-out: Potential inhibitory side effects BSEP (IC50)

## CC(C)(C)OC(=O)Nc1cc(COc2ccc3c(c2)OC[C@H]3CC(=O)O)c2c(c1)OCO2 [IIb-43]
GPR40; GPR40 agonist activity range (EC50), CHO-K1/GPR40 cells, read-out: GPR40 activity
  EC50: < 0.01 µM
GPR40; Table 4, read-out: GPR40 Activity (hEC50)
  EC50: 0.0068 µM
GPR40; read-out: GPR40 activity (EC50)
  EC50: < 0.01 µM
[1]
  LD50 at 5 days: > 600 mg/kg
Healthy mice; MTD high dose 600 mg/kg/day, mice, 600 mg/kg/day
  overall / acute toxicity: low and very low
Healthy mice; during the dosing and 5-day recovery period, 600 mg/kg
  abnormalities in body weight and external and internal observations: no abnormalities
Healthy mice; mice, 600 mg/kg
  autopsy results (heart, liver, lung, kidney, intestine): did not reveal any abnormal changes; also recorded: did not reveal any abnormalities
Healthy mice; mice, 600 mg/kg by gavage, 5 days
  survival rate of the mice after administration: 100%
[2]; [4]
  IC50: 66.8 µM
[2]; read-out: BSEP
  IC50: > 25 µM
hERG
  IC50: > 30 µM
Ames assay
  Ames assay result: no relevant side effects

## Cc1cc(OCCCS(C)(=O)=O)cc(C)c1-c1cccc(COc2ccc3c(c2)OC[C@H]3CC(=O)O)c1 [Ref-1]
[2]; [4]
  IC50: 7.1 µM
[3]; 50 mg once daily, versus control sulphonylureas
  risk of causing hypoglycaemia: significantly lower than that of the control sulphonylureas
[3]; clinical studies terminated in 2013
  hepatotoxicity: problems with hepatotoxicity
[3]; when blood glucose levels are normal
  effect on insulin secretion: no effect
